For one assay, the system named is Escherichia coli. Kind of assay: Effect on intestinal bacterial colonies, E. coli count in feces. The format is in vivo. Conditions: female ICR mice, oral 500 mg/kg/day for two days, first day after administration; before administration 6.4. As to the method:
(§1) Effect of the present compounds on the intestinal bacterial colonies was examined.
(§2) Each of the present compounds was orally administered to mice (one group consisting of five female ICR mice of 6-week-old) for two consecutive days at a dose of 500 mg/kg/day.
(§3) Before and on the first day after the administration, feces of each mouse was collected and diluted with an anerobic diluent (phosphoric buffer solution) of 100 times volume and ground. 0.1 ml of the diluted and ground feces was smeared on each culture medium shown in Table 1 and cultured aerobically or anaerobically (according to the anaerobic glove box method) under each condition shown in Table 1.
DHL agar aerobic, 37° C., one day

The test system of the next assay is Pseudomonas aeruginosa. Put plainly: Effect on intestinal bacterial colonies, Ps. aeruginosa count in feces. It is filed as in vivo. To be noted: female ICR mice, oral 500 mg/kg/day for two days, first day after administration; before administration <3.0. As for the experimental part: as §1, §2, §3
NAC agar aerobic, 37° C., one day

Another assay concerns Streptococcus spp. Put plainly: Effect on intestinal bacterial colonies, Streptococcus count in feces. The format is in vivo. To be noted: female ICR mice, oral 500 mg/kg/day for two days, first day after administration; before administration 6.8. As to the method: as §1, §2, §3
TATAC agar aerobic, 37° C., one day

The subject of assay [1] is Lactobacillus acidophilus. Kind of assay: Effect on intestinal bacterial colonies, L. acidophilus count in feces. It is filed as in vivo. To be noted: female ICR mice, oral 500 mg/kg/day for two days, first day after administration; before administration 9.0. As to the method: as §1, §2, §3
Lactobacillus acidophilus
LBS agar anaerobic, 37° C., five

For the next assay, the system named is Lactobacillus bifidus. Kind of assay: Effect on intestinal bacterial colonies, L. bifidus count in feces. To be noted: female ICR mice, oral 500 mg/kg/day for two days, first day after administration; before administration 8.4. The format is in vivo. As to the method: as §1, §2, §3
BS agar anaerobic, 37° C., five

The test system of another assay is Bacteroides. Kind of assay: Effect on intestinal bacterial colonies, Bacteroides count in feces. The format is in vivo. Conditions: female ICR mice, oral 500 mg/kg/day for two days, first day after administration; before administration 8.3. As for the experimental part:
as §1, §2, §3
Bacteroides NBGT agar anaerobic, 37° C., five

For assay [2], the system named is Escherichia coli IFO 12734. Kind of assay: Antibacterial activity (MIC), agar plate, E. coli. It is filed as cell-based. Conditions: E. coli IFO 12734, Mueller-Hinton agar, 37° C., 18 to 24 hours; unit assumed. As to the method:
(§4) Antibacterial activity of the present compounds was examined as follows.
(§5) Antibacterial activity of each of the present compounds was examined against the following two bacteria according to the standard method of Japan Society of Chemotherapy:
Escherichia coli IFO 12734 and
(§6) Each bacterial strain was inoculated into the Mueller-Hinton's culture medium and cultured at 37° C. for 18 to 48 hours. The culture medium was diluted so as to contain 1×10^6 cells of the bacteria per one ml, and the obtained medium was used as the bacterial specimen.
(§7) Agar plates were prepared by adding one part by weight of each solution of the present compounds having a predetermined concentration to nine parts by weight of Mueller-Hinton's culture medium.
(§8) A loopful amount of the bacterial specimen prepared above was smeared to make a streak of about 2 cm on each agar plate and cultured at 37° C. for 18 to 24 hours. The minimum concentration for completely inhibiting proliferation of the bacteria (referred as MIC) was determined.

Assay [3] has as its system Staphylococcus aureus IAM 1011. Put plainly: Antibacterial activity (MIC), agar plate, Staph. aureus. To be noted: Staph. aureus IAM 1011, Mueller-Hinton agar, 37° C., 18 to 24 hours; unit assumed. It is filed as cell-based. As for the experimental part: as §4, §5
Staphylococcus aureus IAM 1011
as §6, §7, §8

In assay [4] the test system is Staphylococcus aureus IAM 1011. Put plainly: Activation by rat liver homogenate (S-9 mix), penicillin cup proliferation-inhibiting circle. To be noted: compound solution 100 μg/ml, ratio of circle diameter to conventional penicillin antibiotic; for Proliferation-inhibiting index (%), after adding S-9 mix: incubated with S-9 mix 37° C., 20 min; for Proliferation-inhibiting index (%), before adding S-9 mix: phosphoric buffer control without S-9. It is filed as cell-based. As to the method:
As an enzyme for activating metabolism, a rat liver homogenate (S-9, manufactured by Oriental Yeast Company, Japan) was used in the following composition per one ml (hereinafter referred to as S-9 mix).
0.1 ml of each solution of the present compounds at a concentration of 100 μg/ml was mixed with 0.9 ml of S-9 mix or 0.9 ml of 0.1M phosphoric buffer solution (as a control) and the obtained mixture was incubated at 37° C. for 20 min with shaking.
Staphylococcus aureus IAM 1011 was inoculated into a Mueller-Hinton's culture medium and cultured at 37° C. for 18 hours. The culture medium was adjusted to a cell concentration of 1×10^8 per one ml and mixed with 50 times by volume of Mueller-Hinton's agar culture medium to obtain an agar plate.
A penicillin cup of 8 mm in diameter was placed on the agar plate prepared above, and into the cup 0.1 ml of the mixture was introduced and allowed to stand at 4° C. for 2 hours and then cultured at 37° C. for 18 hours to measure the diameter of a circle in which the proliferation of bacteria was inhibited (proliferation-inhibiting circle). In Table 4, the proliferation-inhibitingindex is shown with the ratio (%) of the diameter of the proliferation-inhibiting circle obtained by using each of the present compounds to that obtained by using the comparative compound (conventionalpenicillin antibiotic).

In brackets after ≈: the same amount, converted by molar mass.

Take `COc1cccc(C=NC(C(=O)N[C@@H]2C(=O)N3[C@@H]2SC(C)(C)[C@@H]3C(=O)O)c2ccccc2)c1O` (some centres unmarked) [Example 2, sodium 6-(3-methoxysalicylaldehydeiminophenyl-glycino)penicillanate]: the “Logarithmic value of the number of bacterial cells per one gram of feces, E. coli” value in the assay on Escherichia coli is given as 6.4 logarithmic value; cells per o. Moreover, the “Logarithmic value of the number of bacterial cells per one gram of feces, Ps. aeruginosa” value with Pseudomonas aeruginosa is < 3.0 logarithmic value; cells per o. In the assay with Streptococcus spp., the “Logarithmic value of the number of bacterial cells per one gram of feces, Strept. spp.” value is given as 6.5 logarithmic value; cells per o. The “Logarithmic value of the number of bacterial cells per one gram of feces, L. acidophilus” value in assay [1] is given as 8.8 logarithmic value; cells per o. In addition, the “Logarithmic value of the number of bacterial cells per one gram of feces, L. bifidus” value in the assay with Lactobacillus bifidus is 8.3 logarithmic value; cells per o. Further, the “Logarithmic value of the number of bacterial cells per one gram of feces, Bacteroides” value in the assay on Bacteroides was 8.3 logarithmic value; cells per o. The molecule further had an MIC, E. coli in assay [2] of 6.25 µg/mL. The same molecule displayed an MIC, Staph. aureus in [3] of 0.1 µg/mL. In [4], the “Proliferation-inhibiting index (%), after adding S-9 mix” value is given as “+++ (66-100)” and the “Proliferation-inhibiting index (%), before adding S-9 mix” value is recorded as “++ (33-66)”.
As for `CC1(C)S[C@@H]2[C@H](NC(=O)C(N=Cc3cc([N+](=O)[O-])ccc3O)c3ccccc3)C(=O)N2[C@H]1C(=O)O` (some centres unmarked) [Example 3], the “Logarithmic value of the number of bacterial cells per one gram of feces, E. coli” value with Escherichia coli is reported as 6.5 logarithmic value; cells per o. Moreover, the “Logarithmic value of the number of bacterial cells per one gram of feces, Ps. aeruginosa” value in the assay with Pseudomonas aeruginosa is recorded as < 3.0 logarithmic value; cells per o. Moreover, the “Logarithmic value of the number of bacterial cells per one gram of feces, Strept. spp.” value with Streptococcus spp. is 6.8 logarithmic value; cells per o. The “Logarithmic value of the number of bacterial cells per one gram of feces, L. acidophilus” value in [1] was 9.1 logarithmic value; cells per o. Further, the “Logarithmic value of the number of bacterial cells per one gram of feces, L. bifidus” value with Lactobacillus bifidus is listed as 8.4 logarithmic value; cells per o. For the same molecule, the “Logarithmic value of the number of bacterial cells per one gram of feces, Bacteroides” value in the assay on Bacteroides is 8.2 logarithmic value; cells per o. Besides, the MIC, E. coli in assay [2] worked out at 12.5 µg/mL (≈ 25.1 µM). In addition, the MIC, Staph. aureus in assay [3] stood at 0.78 µg/mL (≈ 1.56 µM). Also, in assay [4], the “Proliferation-inhibiting index (%), after adding S-9 mix” value is recorded as “+++ (66-100)” and the “Proliferation-inhibiting index (%), before adding S-9 mix” value was “++ (33-66)”.
For `CC1(C)S[C@@H]2[C@H](NC(=O)C(N=Cc3ccccc3O)c3ccccc3)C(=O)N2[C@H]1C(=O)O` (some centres unmarked) [Example 4, sodium 6-(salicylaldehydeiminophenylglycino)penicillanate], the “Logarithmic value of the number of bacterial cells per one gram of feces, E. coli” value in the assay with Escherichia coli was 6.4 logarithmic value; cells per o. In the assay with Pseudomonas aeruginosa, the “Logarithmic value of the number of bacterial cells per one gram of feces, Ps. aeruginosa” value is on record as < 3.0 logarithmic value; cells per o. Further, in the assay on Streptococcus spp., the “Logarithmic value of the number of bacterial cells per one gram of feces, Strept. spp.” value is reported as 6.5 logarithmic value; cells per o. Besides, the “Logarithmic value of the number of bacterial cells per one gram of feces, L. acidophilus” value in assay [1] was 8.8 logarithmic value; cells per o. Also, in the assay on Lactobacillus bifidus, the “Logarithmic value of the number of bacterial cells per one gram of feces, L. bifidus” value was 8.8 logarithmic value; cells per o. Further, in the assay on Bacteroides, the “Logarithmic value of the number of bacterial cells per one gram of feces, Bacteroides” value was 8.2 logarithmic value; cells per o. Further, the MIC, E. coli in [2] came to 12.5 µg/mL. For the same molecule, the MIC, Staph. aureus in assay [3] was determined as 0.78 µg/mL. In assay [4], the “Proliferation-inhibiting index (%), after adding S-9 mix” value is “+++ (66-100)” and the “Proliferation-inhibiting index (%), before adding S-9 mix” value is on record as “++ (33-66)”.
In the case of `CC1(C)S[C@@H]2[C@H](NC(=O)C(N=Cc3cc(Cl)ccc3O)c3ccccc3)C(=O)N2[C@H]1C(=O)O` (some centres unmarked) [Example 5, sodium 6-(5-chlorosalicylaldehydeiminophenylglycino)penicillanate], the “Logarithmic value of the number of bacterial cells per one gram of feces, E. coli” value in the assay with Escherichia coli is 6.5 logarithmic value; cells per o. Moreover, the “Logarithmic value of the number of bacterial cells per one gram of feces, Ps. aeruginosa” value with Pseudomonas aeruginosa is given as 3.3 logarithmic value; cells per o. In addition, the “Logarithmic value of the number of bacterial cells per one gram of feces, Strept. spp.” value in the assay on Streptococcus spp. is given as 6.6 logarithmic value; cells per o. The “Logarithmic value of the number of bacterial cells per one gram of feces, L. acidophilus” value in assay [1] was 8.8 logarithmic value; cells per o. Also, in the assay on Lactobacillus bifidus, the “Logarithmic value of the number of bacterial cells per one gram of feces, L. bifidus” value was 8.7 logarithmic value; cells per o. In the assay with Bacteroides, the “Logarithmic value of the number of bacterial cells per one gram of feces, Bacteroides” value was 8.0 logarithmic value; cells per o. Moreover, the MIC, E. coli in assay [2] worked out at 6.25 µg/mL. Also, in assay [3], the MIC, Staph. aureus was 0.1 µg/mL. Moreover, in assay [4], the “Proliferation-inhibiting index (%), after adding S-9 mix” value was “+++ (66-100)” and the “Proliferation-inhibiting index (%), before adding S-9 mix” value is listed as “++ (33-66)”.
As to `COCOC(=O)[C@@H]1N2C(=O)[C@@H](NC(=O)COc3ccccc3)[C@H]2SC1(C)C` [Example 9], in the assay on Escherichia coli, the “Logarithmic value of the number of bacterial cells per one gram of feces, E. coli” value was 6.5 logarithmic value; cells per o. The “Logarithmic value of the number of bacterial cells per one gram of feces, Ps. aeruginosa” value in the assay with Pseudomonas aeruginosa is given as 3.2 logarithmic value; cells per o. Moreover, the “Logarithmic value of the number of bacterial cells per one gram of feces, Strept. spp.” value in the assay with Streptococcus spp. is 7.0 logarithmic value; cells per o. In assay [1], the “Logarithmic value of the number of bacterial cells per one gram of feces, L. acidophilus” value is given as 9.5 logarithmic value; cells per o. For the same molecule, the “Logarithmic value of the number of bacterial cells per one gram of feces, L. bifidus” value in the assay on Lactobacillus bifidus is 8.5 logarithmic value; cells per o. For the same molecule, the “Logarithmic value of the number of bacterial cells per one gram of feces, Bacteroides” value in the assay with Bacteroides is given as 8.1 logarithmic value; cells per o. The same molecule came in with an MIC, E. coli in assay [2] of at least 25 µg/mL. In addition, the MIC, Staph. aureus in [3] was 12.5 µg/mL (≈ 31.7 µM). In addition, in assay [4], the “Proliferation-inhibiting index (%), after adding S-9 mix” value is reported as “++ (33-66)” and the “Proliferation-inhibiting index (%), before adding S-9 mix” value is “+ (1-33)”.

Source of the values: patent publication US4540689A, “Penicillin derivative” (Kureha Kagaku Kogyo Kabushiki Kaisha, priority 1981, dated 1985).
